Read-outs that look alike come from different tables or passages of the source.
What was measured:
Assay type in all cases: biochemical
[1] = target: cdc2/cyclinB (Homo sapiens, UniProt P06493); experiment: Cyclin-dependent kinase assay (cdc2/cyclinB); details: Table 1; read-out: cdk1/B IC50
Procedure: (§1) All components except the ATP were added to the wells, and the plate was placed on a plate mixer for 2 minutes. […] The reaction was terminated by addition of 0.1 mL of 20% TCA. The plate was kept at 4°C for at least 1 hour to allow the substrate to precipitate. The wells were then washed five times with 0.2 mL of 10% TCA and ^32P incorporation determined with a beta plate counter (Wallac Inc., Gaithersburg, MD).

[2] = target: cdk2/cyclinA (Homo sapiens, UniProt P24941); experiment: Cyclin-dependent kinase assay (cdk2/cyclinA); details: Table 1
Procedure: as §1

[3] = target: cdk2/cyclinE (Homo sapiens, UniProt P24941); experiment: Cyclin-dependent kinase assay (cdk2/cyclinE); details: Table 1; read-out: cdk2/E IC50
Procedure: as §1

[4] = target: cdk4/D (Homo sapiens, UniProt P11802); experiment: Cyclin-dependent kinase 4 (cdk4) enzyme assay, 32P incorporation into retinoblastoma; details: for inhibition at 40 µM: read-out: cdk4/D % inhibition at 40 µM
Sequence of cdk4/D (P11802 whole entry): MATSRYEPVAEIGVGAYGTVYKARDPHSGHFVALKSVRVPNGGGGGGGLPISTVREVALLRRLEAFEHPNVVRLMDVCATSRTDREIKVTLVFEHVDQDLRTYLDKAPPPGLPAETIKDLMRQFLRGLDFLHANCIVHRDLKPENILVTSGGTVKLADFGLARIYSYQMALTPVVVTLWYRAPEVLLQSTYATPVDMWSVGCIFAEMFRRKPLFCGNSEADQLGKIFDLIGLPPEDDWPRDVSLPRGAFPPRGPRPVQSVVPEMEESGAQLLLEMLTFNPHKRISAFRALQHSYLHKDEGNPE
Sequence of cdk4/D (P24385 whole entry, further chain): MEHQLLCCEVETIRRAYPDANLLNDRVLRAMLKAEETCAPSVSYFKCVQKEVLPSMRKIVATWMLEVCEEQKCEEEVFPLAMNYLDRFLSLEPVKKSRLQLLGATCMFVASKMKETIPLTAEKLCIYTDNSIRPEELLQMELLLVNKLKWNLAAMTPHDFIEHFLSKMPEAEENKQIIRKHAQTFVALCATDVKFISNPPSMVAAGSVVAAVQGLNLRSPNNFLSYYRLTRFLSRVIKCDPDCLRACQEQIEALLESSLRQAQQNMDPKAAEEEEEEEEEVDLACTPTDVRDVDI
Procedure: A typical assay, for instance, measures inhibitory activity against the cyclin D dependent kinase 4 enzyme (cdk4/D). […] The cdk 4 assay was carried out as follows.
as §1, with “trichloroacetic acid (TCA).” for “TCA.”, “incorporation was” for “incorporation”

[5] = Table 1, 25 µM ATP, retinoblastoma substrate

Sequence of cdc2/cyclinB (P06493 whole entry): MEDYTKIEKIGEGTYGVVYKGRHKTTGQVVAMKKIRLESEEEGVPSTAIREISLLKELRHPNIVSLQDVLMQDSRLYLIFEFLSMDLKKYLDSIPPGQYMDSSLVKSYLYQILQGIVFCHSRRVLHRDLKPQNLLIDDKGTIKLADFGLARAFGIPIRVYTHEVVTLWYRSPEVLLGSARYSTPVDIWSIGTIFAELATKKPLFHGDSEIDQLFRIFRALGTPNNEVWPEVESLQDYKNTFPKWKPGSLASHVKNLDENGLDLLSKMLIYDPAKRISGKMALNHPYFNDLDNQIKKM
Sequence of cdc2/cyclinB (P14635 whole entry, further chain): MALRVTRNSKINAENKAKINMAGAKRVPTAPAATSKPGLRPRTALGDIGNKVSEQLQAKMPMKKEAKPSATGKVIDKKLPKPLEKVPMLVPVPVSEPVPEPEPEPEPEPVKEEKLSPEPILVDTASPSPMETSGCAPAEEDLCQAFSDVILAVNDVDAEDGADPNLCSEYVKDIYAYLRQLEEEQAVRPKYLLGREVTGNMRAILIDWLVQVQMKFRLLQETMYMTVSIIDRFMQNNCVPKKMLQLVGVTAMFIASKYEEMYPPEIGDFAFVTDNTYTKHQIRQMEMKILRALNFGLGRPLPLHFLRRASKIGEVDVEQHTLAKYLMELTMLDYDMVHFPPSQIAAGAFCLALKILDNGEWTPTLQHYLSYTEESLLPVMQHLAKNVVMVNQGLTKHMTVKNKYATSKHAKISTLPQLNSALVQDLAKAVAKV

SMILES | IC50 [1] [nM] | IC50 [4, 5] [nM] | other results
O=c1ccc2cnc(Nc3ccccc3)nc2[nH]1 [Example 32, 2-Phenylamino-8H-pyrido[2,3-d]pyrimidin-7-one] | 32600 |  | IC50 [2]: 4660 nM; IC50 [3]: 12800 nM
COCn1c(=O)ccc2cnc(Nc3ccccc3)nc21 [Example 37, 8-Methoxymethyl-2-phenylamino-8H-pyrido[2,3-d]pyrimidin-7-one] |  | 4200 | 
O=c1ccc2cnc(Nc3ccccc3)nc2n1CC1CO1 (stereo not drawn) [Example 39, 8-Oxiranylmethyl-2-phenylamino-8H-pyrido[2,3-d]pyrimidin-7-one] |  | 5000 | 
CC(C)n1c(=O)ccc2cnc(Nc3ccccc3)nc21 [Example 43, 8-Isopropyl-2-phenylamino-8H-pyrido[2,3-d]pyrimidin-7-one] | 440 | 150 | IC50 [2]: 31 nM; IC50 [3]: 126 nM
CCn1c(=O)ccc2cnc(NCc3ccccc3)nc21 [Example 44, 2-Benzylamino-8-ethyl-8H-pyrido[2,3-d]pyrimidin-7-one] | 16700 |  | IC50 [2]: 6460 nM
CCNc1ncc2ccc(=O)n(CC)c2n1 [Example 45, 8-Ethyl-2-ethylamino-8H-pyrido[2,3-d]pyrimidin-7-one] | 9230 | 12000 | IC50 [2]: 2460 nM; IC50 [3]: 3930 nM
CCn1c(=O)ccc2cnc(NC(C)(C)C)nc21 [Example 46, 2-tert-Butylamino-8-ethyl-8H-pyrido[2,3-d]pyrimidin-7-one] | 3410 | 5300 | 
CCn1c(=O)ccc2cnc(NC(C)C)nc21 [Example 47, 8-Ethyl-2-isopropylamino-8H-pyrido[2,3-d]pyrimidin-7-one] | 3550 | 3700 | 
CCn1c(=O)ccc2cnc(NC3CCCCC3)nc21 [Example 48, 2-Cyclohexylamino-8-ethyl-8H-pyrido[2,3-d]pyrimidin-7-one] | 2610 | 3300 | IC50 [2]: 230 nM; IC50 [3]: 592 nM
CCn1c(=O)ccc2cnc(Nc3ccc(-c4ccccc4)cc3)nc21 [Example 49, 2-(Biphenyl-4-ylamino)-8-ethyl-8H-pyrido[2,3-d]pyrimidin-7-one] |  | 2000 | 
CCn1c(=O)ccc2cnc(Nc3ccc(OC)cc3)nc21 [Example 51, 8-Ethyl-2-(4-methoxyphenylamino)-8H-pyrido[2,3-d]pyrimidin-7-one] | 665 | 600 | IC50 [2]: 134 nM; IC50 [3]: 422 nM
CCn1c(=O)ccc2cnc(Nc3ccc(N4CCN(C)CC4)cc3)nc21 [Example 53, 8-Ethyl-2-[4-(4-methylpiperazin-1-yl)-phenylamino]-8H-pyrido[2,3-d]pyrimidin-7-one] | 1880 | 85 | IC50 [2]: 339 nM; IC50 [3]: 1190 nM
CCn1c(=O)ccc2cnc(Nc3cccc(OC(F)(F)C(F)F)c3)nc21 [Example 54, 8-Ethyl-2-[3-(1,1,2,2-tetrafluoroethoxy)-phenylamino]-8H-pyrido[2,3-d]pyrimidin-7-one] | 91 | 7830 | IC50 [2]: 238 nM; IC50 [3]: 1200 nM
CCn1c(=O)ccc2cnc(Nc3ccc(O)cc3)nc21 [Example 55, 8-Ethyl-2-(4-hydroxyphenylamino)-8H-pyrido[2,3-d]pyrimidin-7-one] |  | 600 | 
CCn1c(=O)ccc2cnc(Nc3ccc(OCc4ccccc4)cc3)nc21 [Example 56, 2-Benzyloxyphenylamino-8-ethyl-8H-pyrido[2,3-d]pyrimidin-7-one] |  | 25000 | 
CCn1c(=O)ccc2cnc(Nc3ccc(OCCOC)cc3)nc21 [Example 57, 8-Ethyl-2-[4-(2-methoxyethoxy)phenylamino]-8H-pyrido[2,3-d]pyrimidin-7-one] |  | 800 | 
COc1ccc(Cn2c(=O)ccc3cnc(Nc4ccccc4)nc32)cc1 [Example 58, 8-(4-Methoxybenzyl)-2-phenylamino-8H-pyrido[2,3-d]pyrimidin-7-one] |  | 10000 | 
Cn1c(=O)ccc2cnc(NCc3ccccc3)nc21 [Example 63, 2-Benzylamino-8-methyl-8H-pyrido[2,3-d]pyrimidin-7-one] | 21600 |  | IC50 [2]: 38100 nM

SMILES | IC50 [1] [nM] | IC50 [4, 5] [nM] | other results
CCCCNc1ncc2ccc(=O)n(C)c2n1 [Example 64, 2-Butylamino-8-methyl-8H-pyrido[2,3-d]pyrimidin-7-one] |  | 40000 | 
Cn1c(=O)ccc2cnc(NCCc3ccccn3)nc21 [Example 66, 8-Methyl-2-(2-pyridin-2-yl-ethylamino)-8H-pyrido[2,3-d]pyrimidin-7-one] |  | 45000 | 
CC(C)Nc1ncc2ccc(=O)n(C)c2n1 [Example 67, 2-Isopropylamino-8-methyl-8H-pyrido[2,3-d]pyrimidin-7-one] |  | 25000 | 
CCNc1nc(Nc2ccccc2)ncc1CCC(=O)OCC [Example 68, 3-(4-Ethylamino-2-phenylamino-pyrimidin-5-yl)propionic acid ethyl ester] |  |  | IC50 ([4]; Table 2, Formula II compounds): 90000 nM; inhibition at 40 µM ([4]; at 40 µM, Table 2): 37%
CCN1C(=O)CCc2cnc(Nc3ccccc3)nc21 [Example 69, 8-Ethyl-2-phenylamino-5,8-dihydro-6H-pyrido[2,3-d]pyrimidin-7-one] |  | 4300 | 
CCNc1nc(Nc2ccccc2)ncc1C=CC#N [Example 72, 3-(4-Ethylamino-2-phenylamino-pyrimidin-5-yl)acrylonitrile] |  |  | inhibition at 40 µM [4]: 18%
CCNc1nc(Nc2ccccc2)ncc1C(C)=CC(=O)OCC [Example 73, 3-(4-Ethylamino-2-phenylamino-pyrimidin-5-yl)-but-2-enoic acid ethyl ester] |  |  | inhibition at 40 µM ([4]; at 40 µM, Table 2): 58%
CCC(CC)n1c(=O)ccc2cnc(Nc3ccccc3)nc21 [Example 74, 8-(1-Ethylpropyl)-2-phenylamino-8H-pyrido[2,3-d]pyrimidin-7-one] |  | 141 | 
CCn1c(=O)ccc2cnc(Nc3ccc(N4CCOCC4)cc3)nc21 [Example 79, 8-Ethyl-2-(4-morpholin-4-yl-phenylamino)-8H-pyrido[2,3-d]pyrimidin-7-one] |  | 300 | 
CCn1c(=O)c(C)cc2cnc(Nc3ccccc3)nc21 [Example 83, 8-Ethyl-6-methyl-2-phenylamino-8H-pyrido[2,3-d]pyrimidin-7-one] |  | 1800 | 
CCC(C)n1c(=O)ccc2cnc(Nc3ccccc3)nc21 (stereo not drawn) [Example 85, 8-sec-Butyl-2-phenylamino-8H-pyrido[2,3-d]pyrimidin-7-one] |  | 200 | 
COCCn1c(=O)ccc2cnc(Nc3ccccc3)nc21 [Example 86, 8-(2-Methoxyethyl)-2-phenylamino-8H-pyrido[2,3-d]pyrimidin-7-one] |  | 2400 | 
O=c1ccc2cnc(Nc3ccccc3)nc2n1CCCOc1ccccc1 [Example 87, 8-(3-Phenoxypropyl)-2-phenylamino-8H-pyrido[2,3-d]pyrimidin-7-one] | 1080 |  | 
CCn1c(=O)ccc2cnc(Nc3cccc(F)c3)nc21 [Example 89, 8-Ethyl-2-(3-fluorophenylamino)-8H-pyrido[2,3-d]pyrimidin-7-one] |  | 1400 | 
CCn1c(=O)ccc2cnc(Nc3ccc(OC)c(F)c3)nc21 [Example 90, 8-Ethyl-2-(3-fluoro-4-methoxyphenylamino)-8H-pyrido[2,3-d]pyrimidin-7-one] |  | 1000 | 
CCn1c(=O)ccc2cnc(Nc3cccc(F)c3OC)nc21 [Example 91, 8-Ethyl-2-(3-fluoro-2-methoxyphenylamino)-8H-pyrido[2,3-d]pyrimidin-7-one] |  | 9000 | 
CCNc1ncc2ccc(=O)n(-c3ccccc3)c2n1 [Example 100, 2-Ethylamino-8-phenyl-8H-pyrido[2,3-d]pyrimidin-7-one] |  | 19000 | 

— patent EP1806348A2, “Pyrido (2,3-D)Pyrimidines as inhibitors of cellular proliferation” (Warner-Lambert Company LLC, priority 1997, dated 1998)
